Assay results reported in patent US20260274832A1, “COMPOUNDS AND THEIR USE IN TREATING CANCER” (ASTRAZENECA AB, priority 2023, published 2026).

How the values were obtained:
[1] = target: T1, AR (L702H) in LNCaP cells (Homo sapiens, UniProt P10275, L702H/T878A); experiment: LNCaP Androgen Receptor L702H Imaging Assay (LNCaP cells engineered by CRISPR/Cas9); format: cell-based; details: LNCaP cells with AR L702H mutation, 24 h incubation; for DC50: concentration giving 50% of maximum degradation of AR (L702H) per curve fit; for Dmax: LNCaP; for Dmax / LNCaP AR (L702H) Degradation Dmax: maximum degradation observed, normalized as % of positive control
T1 construct: engineered to introduce the mutation L702H into the AR gene using CRISPR/Cas9; endogenous in cells; host or cells: LNCaP cells edited by CRISPR/Cas9 at the AR gene
In short: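 CRISPR-engineered LNCaP cells carrying AR L702H were treated 24 h at 37 °C with a 12-point compound dose response (0.3% DMSO), then fixed and immunostained for AR with DRAQ5 nuclear counterstain. Nuclear AR was quantified by imaging, normalized to positive control; DC50 and Dmax came from Hill or bell-shaped fits.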

[2] = target: T2, AR (AR-full length) in LNCaP cells (Homo sapiens, UniProt P10275, T878A); experiment: LNCaP Androgen Receptor Imaging Assay (immunofluorescence of endogenous nuclear AR); format: cell-based; details: 24 h incubation; for DC50: concentration giving 50% of maximum degradation of AR per curve fit, single experiment or average of two or more; for Dmax: LNCaP
T2 construct: the prostate cancer cell line LNCaP (expressing AR-full length); endogenous in cells; host or cells: LNCaP
In short: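 LNCaP cells (12,000/well) received a 12-point compound dose series (0.3% DMSO) for 24 h at 37° C., then were PFA-fixed and stained for AR (AR441) and nuclei (DRAQ5). Nuclear AR was quantified by imaging, normalized to a 3 μM AR PROTAC control; DC50 and Dmax came from Hill/bell curve fits.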

[3] = maximum degradation observed, normalized as % of positive control (prior art AR PROTAC at 3 μM)

T1 sequence (P10275 whole entry L702H/T878A): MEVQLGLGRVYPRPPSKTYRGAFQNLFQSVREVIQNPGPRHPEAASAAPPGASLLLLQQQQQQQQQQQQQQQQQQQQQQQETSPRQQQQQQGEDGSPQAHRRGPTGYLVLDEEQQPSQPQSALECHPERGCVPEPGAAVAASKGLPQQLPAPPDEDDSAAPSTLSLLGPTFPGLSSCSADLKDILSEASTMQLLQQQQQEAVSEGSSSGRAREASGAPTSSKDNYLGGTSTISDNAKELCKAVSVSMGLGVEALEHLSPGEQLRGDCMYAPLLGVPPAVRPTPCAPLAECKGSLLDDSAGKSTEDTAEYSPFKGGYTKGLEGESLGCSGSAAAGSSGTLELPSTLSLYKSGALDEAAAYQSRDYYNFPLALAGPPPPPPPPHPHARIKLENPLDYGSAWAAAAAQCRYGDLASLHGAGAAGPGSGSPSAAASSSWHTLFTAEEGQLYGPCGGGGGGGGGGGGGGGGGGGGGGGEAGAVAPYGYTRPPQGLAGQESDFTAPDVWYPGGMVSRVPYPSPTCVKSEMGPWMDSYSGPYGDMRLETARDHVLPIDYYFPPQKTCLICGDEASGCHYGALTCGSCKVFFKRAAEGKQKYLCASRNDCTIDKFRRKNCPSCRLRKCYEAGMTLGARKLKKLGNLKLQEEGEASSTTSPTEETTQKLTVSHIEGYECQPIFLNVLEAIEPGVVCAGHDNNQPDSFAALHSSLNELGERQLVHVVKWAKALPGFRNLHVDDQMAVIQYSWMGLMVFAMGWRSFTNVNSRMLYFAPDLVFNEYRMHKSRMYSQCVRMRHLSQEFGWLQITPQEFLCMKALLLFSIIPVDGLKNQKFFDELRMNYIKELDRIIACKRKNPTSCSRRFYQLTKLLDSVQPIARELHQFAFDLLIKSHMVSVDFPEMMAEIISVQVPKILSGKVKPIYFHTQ
T1 sequence (Q96SW2 whole entry partner): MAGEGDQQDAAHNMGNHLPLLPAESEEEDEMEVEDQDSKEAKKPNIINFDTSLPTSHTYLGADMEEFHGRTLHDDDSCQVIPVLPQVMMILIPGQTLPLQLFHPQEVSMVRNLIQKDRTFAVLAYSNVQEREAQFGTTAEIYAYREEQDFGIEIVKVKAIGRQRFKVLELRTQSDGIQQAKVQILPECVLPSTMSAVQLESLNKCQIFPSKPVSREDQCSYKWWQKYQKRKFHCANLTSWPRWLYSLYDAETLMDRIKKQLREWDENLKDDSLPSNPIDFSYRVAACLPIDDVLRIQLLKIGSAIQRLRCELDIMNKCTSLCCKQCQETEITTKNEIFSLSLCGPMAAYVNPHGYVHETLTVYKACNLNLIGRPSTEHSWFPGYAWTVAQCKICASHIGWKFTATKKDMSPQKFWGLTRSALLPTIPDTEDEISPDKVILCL
T2 sequence (P10275 whole entry T878A): as the sequence (P10275 whole entry L702H/T878A) above, with H702L counted along it
T2 sequence (Q96SW2 whole entry partner): as the sequence (Q96SW2 whole entry partner) above

DC50 [1] | Dmax [1] | DC50 [2] | Dmax [2, 3] | SMILES | LNCaP AR (L702H) Degradation Dmax [1] | LNCaP AR Degradation Dmax [2, 3]
21 nM | 84% | 6 nM | 97% | N#Cc1c[nH]c2c(N3CCC(c4cnc(N5CCC(CN6CCN(c7ccc8c(c7)CN(C7CCC(=O)NC7=O)C8=O)CC6)CC5)cn4)CC3)ccc(Cl)c12 (stereo not drawn) [Example 68, 4-Chloro-7-(4-{5-[4-({4-[2-(2,6-dioxopiperidin-3-yl)-1-oxo-2,3-dihydro-1H-isoindol-5-yl]piperazin-1-yl}methyl)piperidin-1-yl]pyrazin-2-yl}piperidin-1-yl)-1H-indole-3-carbonitrile] | – | –
2 nM | 101% | 1 nM | 100% | N#Cc1n[nH]c2c(N3CCC(NC(=O)c4ccc(N5CCC(CN6CCC(n7ccc8c(N9CCC(=O)NC9=O)cccc87)CC6)CC5)cn4)CC3)ccc(Cl)c12 [Example 170, N-[1-(4-Chloro-3-cyano-1H-indazol-7-yl)piperidin-4-yl]-5-[4-({4-[4-(2,4-dioxo-1,3-diazinan-1-yl)-1H-indol-1-yl]piperidin-1-yl}methyl)piperidin-1-yl]pyridine-2-carboxamide] | – | –
23 nM | 105% | 21 nM | 95% | Cc1cc2c(N3CCC(=O)NC3=O)cccc2n1C1CCN(CC2CCN(c3ccc(C4CCN(c5ccc(F)c6c(C#N)c[nH]c56)CC4)cc3)CC2)CC1 [Example 141, 7-(4-{4-[4-({4-[4-(2,4-Dioxo-1,3-diazinan-1-yl)-2-methyl-1H-indol-1-yl]piperidin-1-yl}methyl)piperidin-1-yl]phenyl}piperidin-1-yl)-4-fluoro-1H-indole-3-carbonitrile] | – | –
18 nM | 105% | 9 nM | 102% | N#Cc1c[nH]c2c(N3CCC[C@@H](c4ccc(N5CCC(CN6CCC(n7ccc8c(N9CCC(=O)NC9=O)cccc87)CC6)CC5)cc4)C3)ccc(Cl)c12 [Example 11] | – | –
3100 nM | – | 18 nM | 81% | N#Cc1c[nH]c2c(N3CCCC(c4ccc(N5CCC(CN6CCC(n7ccc8c(N9CCC(=O)NC9=O)cccc87)CC6)CC5)nn4)C3)ccc(Cl)c12 (single isomer, unassigned) [Example 121, 4-Chloro-7-[(3R*)-3-{6-[4-({4-[4-(2,4-dioxo-1,3-diazinan-1-yl)-1H-indol-1-yl]piperidin-1-yl}methyl)piperidin-1-yl]pyridazin-3-yl}piperidin-1-yl]-1H-indole-3-carbonitrile] | 98% | –
4 nM | 94% | 1 nM | 94% | Cc1ccc(N2CCC(NC(=O)c3ccc(N4CCC(CN5CCN(c6ccc7c(c6)CN(C6CCC(=O)NC6=O)C7=O)CC5)CC4)cn3)CC2)c2[nH]cc(C#N)c12 (stereo not drawn) [Example 172, N-[1-(3-Cyano-4-methyl-1H-indol-7-yl)piperidin-4-yl]-5-[4-({4-[2-(2,6-dioxopiperidin-3-yl)-1-oxo-2,3-dihydro-1H-isoindol-5-yl]piperazin-1-yl}methyl)piperidin-1-yl]pyridine-2-carboxamide] | – | –
38 nM | 96% | 6 nM | 102% | N#Cc1n[nH]c2c(N3CCC(c4ccc(N5CCC(CN6CCC(n7ccc8c(N9CCC(=O)NC9=O)cccc87)CC6)CC5)cc4)CC3)ccc(F)c12 [Example 147, 7-(4-{4-[4-({4-[4-(2,4-Dioxo-1,3-diazinan-1-yl)-1H-indol-1-yl]piperidin-1-yl}methyl)piperidin-1-yl]phenyl}piperidin-1-yl)-4-fluoro-1H-indazole-3-carbonitrile] | – | –
41 nM | 94% | 17 nM | 105% | N#Cc1c[nH]c2c(N3CCC[C@@H](c4ccc(N5CC6(CCC(CN7CCC(n8ccc9c(N%10CCC(=O)NC%10=O)cccc98)CC7)CC6)C5)cc4)C3)ccc(Cl)c12 [Example 131, 4-Chloro-7-[(3S)-3-{4-[7-({4-[4-(2,4-dioxo-1,3-diazinan-1-yl)-1H-indol-1-yl]piperidin-1-yl}methyl)-2-azaspiro[3.5]nonan-2-yl]phenyl}piperidin-1-yl]-1H-indole-3-carbonitrile] | – | –
2 nM | 96% | 1 nM | 87% | N#Cc1c[nH]c2c(N3CCC(NC(=O)c4ccc(N5CCC(CN6CCN(c7ccc8c(c7)CN(C7CCC(=O)NC7=O)C8=O)CC6)CC5)cn4)CC3)ccc(Cl)c12 (stereo not drawn) [Example 168, N-[1-(4-Chloro-3-cyano-1H-indol-7-yl)piperidin-4-yl]-5-[4-({4-[2-(2,6-dioxopiperidin-3-yl)-1-oxo-2,3-dihydro-1H-isoindol-5-yl]piperazin-1-yl}methyl)piperidin-1-yl]pyridine-2-carboxamide] | – | –
11 nM | 95% | 20 nM | 87% | N#Cc1c[nH]c2c(C3CCCN(c4ccc(N5CCC(CN6CCN(c7ccc8c(c7)CN(C7CCC(=O)NC7=O)C8=O)CC6)CC5)cc4)C3)ccc(Cl)c12 (single isomer, unassigned) [Example 93, 4-Chloro-7-[(3R*)-1-{4-[4-({4-[2-(2,6-dioxopiperidin-3-yl)-1-oxo-2,3-dihydro-1H-isoindol-5-yl]piperazin-1-yl}methyl)piperidin-1-yl]phenyl}piperidin-3-yl]-1H-indole-3-carbonitrile] | – | –
12 nM | 95% | 9 nM | 97% | COc1nc(N2CCN(CC3CCN(c4ccc([C@@H]5CCCN(c6ccc(Cl)c7c(C#N)c[nH]c67)C5)cc4)CC3)CC2)cc2c1C(=O)N(C1CCC(=O)NC1=O)C2 (stereo partly drawn) [Example 38, 4-Chloro-7-[(3S)-3-{4-[4-({4-[2-(2,6-dioxopiperidin-3-yl)-4-methoxy-3-oxo-2,3-dihydro-1H-pyrrolo[3,4-c]pyridin-6-yl]piperazin-1-yl}methyl)piperidin-1-yl]phenyl}piperidin-1-yl]-1H-indole-3-carbonitrile] | – | –
50 nM | 93% | 22 nM | 97% | N#Cc1c[nH]c2c(N3CCC(c4ccc(N5CCC(CN6CCN(c7ccc(C(=O)NC8CCC(=O)NC8=O)c(F)c7)CC6)CC5)cc4)CC3)ccc(Cl)c12 (stereo not drawn) [Example 106, 4-{4-[(1-{4-[1-(4-Chloro-3-cyano-1H-indol-7-yl)piperidin-4-yl]phenyl}piperidin-4-yl)methyl]piperazin-1-yl}-N-(2,6-dioxopiperidin-3-yl)-2-fluorobenzamide] | – | –
21 nM | 70% | 8 nM | 93% | Cn1c(=O)n(C2CCC(=O)NC2=O)c2cccc(CN3CCN(CC4CCN(c5ccc([C@@H]6CCCN(c7ccc(F)c8c(C#N)c[nH]c78)C6)cc5)CC4)CC3)c21 (stereo partly drawn) [Example 74] | – | –
45 nM | 109% | 25 nM | 106% | N#Cc1c[nH]c2c(N3CCC(c4ccc(N5CC6(CCC(CN7CCC(n8ccc9c(N%10CCC(=O)NC%10=O)cccc98)CC7)CC6)C5)cc4)CC3)ccc(Cl)c12 [Example 142, 4-Chloro-7-(4-{4-[7-({4-[4-(2,4-dioxo-1,3-diazinan-1-yl)-1H-indol-1-yl]piperidin-1-yl}methyl)-2-azaspiro[3.5]nonan-2-yl]phenyl}piperidin-1-yl)-1H-indole-3-carbonitrile] | – | –
> 3000 nM | – | > 3000 nM | – | N#Cc1c[nH]c2c(C3CCCN(c4ccc(C5CCN(CC6CCN(c7ccc8c(c7)CN(C7CCC(=O)NC7=O)C8=O)CC6)CC5)cc4)C3)ccc(Cl)c12 (single isomer, unassigned) [Example 97, 4-Chloro-7-[(3S*)-1-{4-[1-({1-[2-(2,6-dioxopiperidin-3-yl)-1-oxo-2,3-dihydro-1H-isoindol-5-yl]piperidin-4-yl}methyl)piperidin-4-yl]phenyl}piperidin-3-yl]-1H-indole-3-carbonitrile] | – | –

SMILES | DC50 [1] | Dmax [1] | DC50 [2] | Dmax [2, 3] | LNCaP AR (L702H) Degradation Dmax [1] | LNCaP AR Degradation Dmax [2, 3]
N#Cc1c[nH]c2c(N3CCC(c4ccc(OCCCCN5CCC(n6ccc7c(N8CCC(=O)NC8=O)cccc76)CC5)cc4)CC3)cccc12 [Example 58, 7-{4-[4-(4-{4-[4-(2,4-Dioxo-1,3-diazinan-1-yl)-1H-indol-1-yl]piperidin-1-yl}butoxy)phenyl]piperidin-1-yl}-1H-indole-3-carbonitrile] | 114 nM | 78% | 13 nM | 96% | – | –
Cc1ccc(C2CCCN(c3ccc(OCCCCN4CCN(c5ccc6c(c5)CN(C5CCC(=O)NC5=O)C6=O)CC4)cc3)C2)c2[nH]cc(C#N)c12 (single isomer, unassigned) [Example 78, 7-{(3R*)-1-[4-(4-{4-[2-(2,6-dioxopiperidin-3-yl)-1-oxo-2,3-dihydro-1H-isoindol-5-yl]piperazin-1-yl}butoxy)phenyl]piperidin-3-yl}-4-methyl-1H-indole-3-carbonitrile] | 3100 nM | – | 1370 nM | – | 100% | 70%
